According to patent publication US10196609B2, “Composition for promoting cardiac differentiation of pluripotent stem cell comprising EGFR inhibitor” (Kyoto University, priority 2013, dated 2019):

Tests used:
[1] = Effect to promote cardiac differentiation by the methods of WO2012/026491; format: cell-based; conditions: methods described in the Examples of WO2012/026491
Source text: The effect of SO3031 (KY01-I), SO2031 (KY02-I), SO3042 (KY03-I), and SO2077 to promote cardiac differentiation was confirmed by the methods described in the Examples of WO2012/026491.

human ES cells (KhES-3) = assay: Cardiac differentiation of human ES cells in floating culture, percentage of cTnT-positive cardiomyocytes by flow cytometry; format: cell-based; conditions: for effect to promote cardiac differentiation in combination with XAV939 only: XAV+AG1478 or gefitinib; for effect to promote cardiac differentiation in combination with XAV939 only / effect to promote cardiac differentiation by itself: human ES or iPS cells, cell line not stated, FIG. 8; for effect to promote cardiac differentiation by itself: without addition of KYO2111 and XAV939
Procedure: (§1) Human ES cells or iPS cells subcultured with mouse feeder cells were collected. Colonies of the human ES cells or iPS cells (3-10×10^6 cells/well) were plated on 6-well plates of Ultra-low culture dish (CORNING 3261), and cultured in an IMDM-based medium having a defined composition (IMDM (Sigma) containing 1% MEM non-essential amino acid solution (Sigma), 1% penicillin-streptomycin (Gibco), 2 mM L-glutamine (Sigma), 0.5 mM L-carnitine (Sigma), 0.001% 2-mercaptoethanol (Gibco), and 0.4% human serum albumin (Sigma)) in floating culture for 30 days (FIG. 5). During Days 0-2 of culture (for 2 days), CHIR99021 (Axon) (4 μM) and BIO (Calbiochem) (1 μM) were added, and during Days 3-9 of culture (for 6 days) KYO2111 (10 μM) and XAV939 (1 μM) were added. […] The cardiac differentiation was evaluated by analyzing the percentage of cardiomyocytes with flow cytometry using an antibody against cardiac troponin T (cTnT), a specific marker of cardiac muscle at Day 30 of culture.

Monkey ES cells = assay: Cardiac differentiation of monkey ES cells (α-MHC promoter-GFP) in adhesion culture, GFP fluorescence by HCS; format: cell-based; conditions: for effect of promoting cardiac differentiation (GFP fluorescence): added Days 4-8 together with KYO2111 (10 µM), AG1478 20 μM, read at Day 10, FIGS. 1-3
Procedure: At Day 10 of culture, compounds that enhanced GFP fluorescence were identified by measuring GFP fluorescence with HCS (high contents screening) system (Olympus IX81 inverted microscope and Molecular device/MetaMorph imaging system).
During Days 4-8 of culture KYO2111 (10 μM) and PP3 (3 μM, 10 μM, 30 μM, or 100 μM) were added.

[2] = system: human iPS cells (IMR90-1); assay: Cardiac differentiation of human iPS cells in floating culture, percentage of cTnT-positive cardiomyocytes by flow cytometry; format: cell-based; conditions: 5-20 μM added Days 2-9 of culture, FIG. 7
Procedure: as §1

Human iPS cells (253G1) = assay: Cardiac differentiation of human iPS cells in feeder-free sphere culture, cTnT flow cytometry; format: cell-based; conditions: 10 μM Days 3-9 in addition to KYO2111 (10 μM) and XAV939 (1 μM); Day 30; increased from 34% without EGFR inhibitor; FIG. 9
Procedure: Human iPS cells (253G1) were cultured in sphere culture without feeder cells (feeder-free sphere culture). In detail, 253G1 cells subcultured with mouse feeder cells were collected, the cell cluster was passed through […] (CellTrics, PARTEC04004-2327) to give uniform cell clusters having the size of 80-120 μm, the cells were plated in 6-well plates of Ultra-low culture dish (CORNING 3261) and cultured in mTeSR1 medium (Stem Cell Technology 05850) containing 3% methylcellulose (R&D, HSC001) in floating culture until the size of the colonies of the iPS cells arrived at about 200-300 μm. The cells were subcultured more than 20 times by repeating the steps of this feeder-free sphere culture. The medium was replaced with an IMDM-based medium having a defined composition (IMDM (Sigma) containing 1% MEM non-essential amino acid solution (Sigma), 1% penicillin-streptomycin (Gibco), 2 mM L-glutamine (Sigma), 0.5 mM L-carnitine (Sigma), 0.001% 2-mercaptoethanol (Gibco), and 0.4% human serum albumin (Sigma)) and the cells were cultured in floating culture for 30 days (FIG. 5). […] The cardiac differentiation was evaluated by analyzing the percentage of cardiomyocytes with flow cytometry using an antibody against cardiac troponin T (cTnT), a specific marker of cardiac muscle at Day 30 of culture.

Src kinase = Src kinase (Homo sapiens, UniProt P12931); conditions: cited from earlier work
Sequence of Src kinase (P12931 whole entry): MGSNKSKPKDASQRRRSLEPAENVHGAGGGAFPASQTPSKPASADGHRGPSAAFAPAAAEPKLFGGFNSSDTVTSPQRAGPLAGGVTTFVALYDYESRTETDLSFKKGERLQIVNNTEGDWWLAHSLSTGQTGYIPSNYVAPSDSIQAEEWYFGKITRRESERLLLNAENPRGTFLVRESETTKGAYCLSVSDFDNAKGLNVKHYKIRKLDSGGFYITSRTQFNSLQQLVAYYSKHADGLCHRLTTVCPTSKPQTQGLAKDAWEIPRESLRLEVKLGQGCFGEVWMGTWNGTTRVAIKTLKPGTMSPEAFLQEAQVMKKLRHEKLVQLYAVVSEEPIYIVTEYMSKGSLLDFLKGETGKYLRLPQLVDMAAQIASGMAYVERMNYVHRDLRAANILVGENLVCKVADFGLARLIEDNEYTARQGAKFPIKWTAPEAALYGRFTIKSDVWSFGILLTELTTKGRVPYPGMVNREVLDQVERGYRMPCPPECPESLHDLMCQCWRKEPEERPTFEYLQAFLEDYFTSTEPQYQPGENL

Structure (SMILES): CCCOc1ccc(CCC(=O)Nc2nc3ccc(I)cc3s2)cc1OC [SO2077, 2-(3-(3-methoxy-4-propoxyphenyl)propanamide)-6-iodobenzothiazole]
- effect to promote cardiac differentiation [1]: confirmed

Structure (SMILES): COc1cc2ncnc(Nc3cccc(Cl)c3)c2cc1OC [AG1478]
- percentage of cardiomyocytes (human ES cells (KhES-3); 20 μM, Days 2-9, stated for human ES (KhES-3) and iPS (IMR90-1) cells together, Day 30, FIG. 7): 92-95%
- cardiac differentiation efficiency (human ES cells (KhES-3); 5-20 μM added Days 2-9 of culture, KhES-3, FIG. 7): the cardiac differentiation efficiency was increased
- effect to promote cardiac differentiation in combination with XAV939 only (human ES cells (KhES-3)): produced an effect to promote cardiac differentiation
- effect to promote cardiac differentiation by itself (human ES cells (KhES-3)): produced an effect to promote cardiac differentiation
- synergistic promotion of cardiac differentiation with KYO2111 (Monkey ES cells; Wnt signaling inhibitor KYO2111 added together, FIG. 4): synergistically promoted cardiac differentiation
- synergistic promotion of cardiac differentiation with XAV939 (Monkey ES cells; Wnt signaling inhibitor XAV939 added together, FIG. 4): synergistically promoted cardiac differentiation
- effect of promoting cardiac differentiation (GFP fluorescence) (Monkey ES cells): had the effect of promoting cardiac differentiation
- cardiac differentiation efficiency [2]: the cardiac differentiation efficiency was increased
- percentage of cardiomyocytes (Human iPS cells (253G1)): about 50%

Structure (SMILES): COc1ccc(CCC(=O)Nc2nc3ccc(I)cc3s2)cc1OC [SO2031, 2-(3-(3,4-dimethoxyphenyl)propanamide)-6-iodobenzothiazole]
- effect to promote cardiac differentiation [1]: confirmed

Structure (SMILES): COc1ccc(CCCC(=O)Nc2nc3ccc(I)cc3s2)cc1OC [SO3042, 2-(4-(3,4-dimethoxyphenyl)butanamide)-6-iodobenzothiazole]
- effect to promote cardiac differentiation [1]: confirmed

Structure (SMILES): COc1ccc(CC(=O)Nc2nc3ccc(I)cc3s2)cc1OC [SO3031, 2-(2-(3,4-dimethoxyphenyl)acetamide)-6-iodobenzothiazole]
- effect to promote cardiac differentiation [1]: confirmed

Structure (SMILES): Nc1ncnc2c1cnn2-c1ccccc1 [PP3]
- enhancement of the effect of KYO2111 to promote cardiac differentiation (Monkey ES cells; PP3 3, 10, 30 or 100 μM with KYO2111 (10 μM), Days 4-8, FIG. 10): enhance the effect of KYO2111 to promote cardiac differentiation
- inhibitory effect on Src kinase (Src kinase): no inhibitory effect

Structure (SMILES): COc1cc2ncnc(Nc3ccc(F)c(Cl)c3)c2cc1OCCCN1CCOCC1 [gefitinib]
- promotion of cardiac differentiation (human ES cells (KhES-3); 10 μM added Days 0-2 of culture, with CHIR99021+BIO Days 0-2, KYO2111+XAV939 Days 3-9, Day 30, FIG. 6): did not promote cardiac differentiation
- effect to promote cardiac differentiation in combination with XAV939 only (human ES cells (KhES-3)): produced an effect to promote cardiac differentiation
- effect to promote cardiac differentiation by itself (human ES cells (KhES-3)): produced an effect to promote cardiac differentiation
- effect of promoting cardiac differentiation (GFP fluorescence) (Monkey ES cells): have the effect of promoting cardiac differentiation
- percentage of cardiomyocytes (Human iPS cells (253G1)): about 50%
